Reference: ChEMBL document CHEMBL6177967, “Semisynthesis and biological evaluation of 17-hydroxybrevianamide N derivatives as anti-inflammatory agents by mediating NF-κB and MAPK signaling pathways” (Eur J Med Chem, 2025)
The source made the active and inactive calls. The calls are words filed in the database; no cut-off is given here.

Assays:
RAW264.7 [1] = assay: Cytotoxicity against mouse RAW264.7 cells assessed as inhibition of cell growth at 50 uM incubated for 24 hrs by MTT assay; type: toxicity, cell-based; conditions: raw264.7, 24 h
RAW264.7 [2] = assay: Cytotoxicity against mouse RAW264.7 cells assessed as inhibition of cell growth at 10 uM incubated for 24 hrs by MTT assay; type: toxicity, cell-based; conditions: raw264.7, 24 h
RAW264.7 [3] = assay: Anti-inflammatory activity in LPS-induced mouse RAW264.7 cells assessed as inhibition of NO levels at 2 uM incubated for 24 hrs; type: functional, cell-based
RAW264.7 [4] = assay: Cytotoxicity against mouse RAW264.7 cells assessed as inhibition of cell growth at 2 uM incubated for 24 hrs by MTT assay; type: toxicity, cell-based; conditions: raw264.7, 24 h
RAW264.7 [5] = assay: Anti-inflammatory activity in LPS-induced mouse RAW264.7 cells assessed as inhibition of NO levels incubated for 24 hrs; type: functional, cell-based; conditions: RAW264.7, 24 h
RAW264.7 [6] = assay: Anti-inflammatory activity in LPS-induced mouse RAW264.7 cells assessed as inhibition of TNF-alpha level at 2 uM incubated for 24 hrs by ELISA relative to control; type: functional
RAW264.7 [7] = assay: Anti-inflammatory activity in LPS-induced mouse RAW264.7 cells assessed as inhibition of IL-6 level at 2 uM incubated for 24 hrs by ELISA relative to control; type: functional
RAW264.7 [8] = assay: Anti-inflammatory activity in LPS-induced mouse RAW264.7 cells assessed as inhibition of IL-1beta level at 2 uM incubated for 24 hrs by ELISA relative to control; type: functional
RAW264.7 [9] = assay: Anti-inflammatory activity in LPS-induced mouse RAW264.7 cells assessed as inhibition of TNF-alpha level at 20 uM incubated for 24 hrs by ELISA relative to control; type: functional
RAW264.7 [10] = assay: Anti-inflammatory activity in LPS-induced mouse RAW264.7 cells assessed as inhibition of IL-6 level at 20 uM incubated for 24 hrs by ELISA relative to control; type: functional
RAW264.7 [11] = assay: Anti-inflammatory activity in LPS-induced mouse RAW264.7 cells assessed as inhibition of IL-1beta level at 20 uM incubated for 24 hrs by ELISA relative to control; type: functional

SMILES	Activity (RAW264.7 [2])	Activity (RAW264.7 [4])	IC50 (RAW264.7 [5]) [µM]	inhibition (RAW264.7 [6])	inhibition at 2 µM (RAW264.7 [7]) [%]	also measured
O=C1c2nc3ccccc3c(=O)n2C(Cc2ccccc2O)C(=O)N1Cc1ccc(Cl)cc1 (racemic)	Non-toxic	–	–	–	–	Activity (RAW264.7 [1]): Non-toxic
CN1C(=O)c2nc3ccccc3c(=O)n2C(Cc2ccccc2OCc2ccc(Cl)cc2)C1=O (racemic)	Non-toxic	–	–	–	–	Activity (RAW264.7 [3]): Active
O=C1c2nc3ccccc3c(=O)n2[C@H](Cc2ccccc2O)C(=O)N1Cc1ccccc1Cl	–	Non-toxic	1.19	inactive	28.8	inhibition at 2 µM (RAW264.7 [8]): 35.7%
Cc1ccc(CN2C(=O)c3nc4ccccc4c(=O)n3C(Cc3ccccc3O)C2=O)cc1 (racemic)	Non-toxic	–	–	–	–	Activity (RAW264.7 [1]): Non-toxic
O=C1c2nc3ccccc3c(=O)n2[C@H](Cc2ccccc2O)C(=O)N1Cc1cccc(F)c1	–	Non-toxic	2.25	inactive	22.9	inhibition at 2 µM (RAW264.7 [8]): 44%
COCOc1ccccc1CC1C(=O)N(Cc2cccc(C(F)(F)F)c2)C(=O)c2nc3ccccc3c(=O)n21 (racemic)	Non-toxic	–	–	–	–	Activity (RAW264.7 [1]): Toxic
CN1C(=O)c2nc3ccccc3c(=O)n2[C@H](Cc2ccccc2OCC#N)C1=O	–	Non-toxic	> 8	inactive	31.9	inhibition at 2 µM (RAW264.7 [8]): 63.1%
CN1C(=O)C(Cc2ccccc2O)n2c(nc3ccccc3c2=O)C1(O)c1ccccc1 (racemic)	Non-toxic	–	–	–	–	Activity (RAW264.7 [1]): Non-toxic
O=C1c2nc3ccccc3c(=O)n2[C@H](Cc2ccccc2O)C(=O)N1Cc1cccc(Br)c1	–	Non-toxic	1.37	inactive	19.2	inhibition at 2 µM (RAW264.7 [8]): 45.2%
O=C1c2nc3ccccc3c(=O)n2C(Cc2ccccc2O)C(=O)N1Cc1ccccc1Cl (racemic)	Non-toxic	–	–	–	–	Activity (RAW264.7 [1]): Non-toxic; Activity (RAW264.7 [3]): Active; Strong Ability Of No Inhibition Observed
CNC(=N)NCCC[C@H](N)C(=O)O [TILARGININE]	–	–	20	–	–	inhibition at 20 µM (RAW264.7 [9]): 19.4%; inhibition at 20 µM (RAW264.7 [10]): 27.6%; inhibition at 20 µM (RAW264.7 [11]): 61.9%
CN1C(=O)c2nc3ccccc3c(=O)n2[C@@H](Cc2ccccc2OCc2ccccc2Cl)C1=O	–	Non-toxic	1.53	inactive	21.4	inhibition at 2 µM (RAW264.7 [8]): 82.1%
O=C1c2nc3ccccc3c(=O)n2C(Cc2ccccc2O)C(=O)N1Cc1cccc(C(F)(F)F)c1 (racemic)	Non-toxic	–	–	–	–	–
COc1ccc(C2(O)c3nc4ccccc4c(=O)n3C(Cc3ccccc3O)C(=O)N2C)cc1 (racemic)	Non-toxic	–	–	–	–	–
Cc1cccc(CN2C(=O)c3nc4ccccc4c(=O)n3C(Cc3ccccc3O)C2=O)c1 (racemic)	Non-toxic	–	–	–	–	Activity (RAW264.7 [3]): Active
O=C1c2nc3ccccc3c(=O)n2[C@@H](Cc2ccccc2O)C(=O)N1Cc1cccc(Br)c1	–	Non-toxic	> 8	inactive	–	inhibition (RAW264.7 [7]): inactive; inhibition (RAW264.7 [8]): inactive
CN1C(=O)c2nc3ccccc3c(=O)n2[C@H](Cc2ccccc2OCc2ccccc2Cl)C1=O	–	Non-toxic	> 8	inactive	–	inhibition (RAW264.7 [7]): inactive; inhibition (RAW264.7 [8]): inactive
CN1C(=O)c2nc3ccccc3c(=O)n2C(Cc2ccccc2OCc2ccccc2Cl)C1=O (racemic)	Non-toxic	–	–	–	–	Activity (RAW264.7 [3]): Active; Strong Ability Of No Inhibition Observed
O=C1c2nc3ccccc3c(=O)n2[C@@H](Cc2ccccc2O)C(=O)N1Cc1ccccc1Cl	–	Non-toxic	1.78	inactive	19.3	inhibition (RAW264.7 [8]): inactive
O=C1c2nc3ccccc3c(=O)n2C(Cc2ccccc2O)C(=O)N1Cc1cccc(F)c1 (racemic)	Non-toxic	–	–	–	–	Activity (RAW264.7 [3]): Active; Strong Ability Of No Inhibition Observed
